From ChEMBL document CHEMBL1201862, “PubChem BioAssay data set” (2004)
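Dose response: 5 concentrations. Exposure: 48 h. Format: 96-well plates. Endpoint: linear interpolation; highest concentration if not reached. GI50: concentration for 50% inhibition of growth.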 The source made the active and inactive calls. Cut-off read from the data, not from the text of the source: active = GI50 up to about 1.1 µM and inactive = higher.

Assays:
Experiment in all cases: growth of human tumour cells (NCI), 48 h
OVCAR-3 = test system: OVCAR-3
RXF 393 = test system: RXF 393
SNB-75 = test system: SNB-75
MDA-N = test system: MDA-N
U-251 = test system: U-251
SN12C = test system: SN12C
786-0 = test system: 786-0
A498 = test system: A498
OVCAR-8 = test system: OVCAR-8
CCRF-CEM = test system: CCRF-CEM
UO-31 = test system: UO-31
HT-29 = test system: HT-29
SR = test system: SR
CAKI-1 = test system: CAKI-1
HCC 2998 = test system: HCC 2998
HCT-15 = test system: HCT-15
SK-MEL-5 = test system: SK-MEL-5
NCI-H226 = test system: NCI-H226
SF-539 = test system: SF-539

Compound	GI50 (OVCAR-3)	GI50 (RXF 393)	GI50 (SNB-75)	GI50 (MDA-N)	GI50 (U-251)	GI50 (SN12C)	GI50 (786-0)	GI50 (A498)	GI50 (OVCAR-8)	GI50 (CCRF-CEM)	GI50 (UO-31)	GI50 (HT-29)	GI50 (SR)	GI50 (CAKI-1)	GI50 (HCC 2998)	GI50 (HCT-15)	GI50 (SK-MEL-5)	GI50 (NCI-H226)	GI50 (SF-539)
O=P(O)(O)OC1O[C@H](CO)[C@H](O)[C@H](O)[C@H]1O (some centres undefined)	> 100 µM (inactive)	> 100 µM (inactive)	> 100 µM (inactive)	> 100 µM (inactive)	> 100 µM (inactive)	> 100 µM (inactive)	> 100 µM (inactive)	> 100 µM (inactive)	> 100 µM (inactive)	> 100 µM (inactive)	> 100 µM (inactive)	> 100 µM (inactive)	> 100 µM (inactive)	> 100 µM (inactive)	> 100 µM (inactive)	> 100 µM	> 100 µM (inactive)	–	–
CC(C)Cn1cnc2c(SCc3ccccn3)nc(N)nc21	> 100 µM (inactive)	> 100 µM (inactive)	51.9 µM (inactive)	> 100 µM (inactive)	> 100 µM (inactive)	> 100 µM (inactive)	> 100 µM (inactive)	> 100 µM (inactive)	> 100 µM (inactive)	> 100 µM (inactive)	> 100 µM (inactive)	> 100 µM (inactive)	> 100 µM (inactive)	> 100 µM (inactive)	> 100 µM (inactive)	> 100 µM	> 100 µM (inactive)	> 100 µM (inactive)	–
CC(=O)Oc1ccc2c3c1O[C@H]1[C@H](O)CC[C@@]4(O)[C@@H](C2)N(C)CC[C@]314	> 100 µM (inactive)	–	–	> 100 µM (inactive)	> 100 µM (inactive)	> 100 µM (inactive)	> 100 µM (inactive)	> 100 µM (inactive)	> 100 µM (inactive)	–	> 100 µM (inactive)	> 100 µM (inactive)	> 100 µM (inactive)	> 100 µM (inactive)	–	> 100 µM	> 100 µM (inactive)	> 100 µM (inactive)	> 100 µM (inactive)
CN(Cc1cnc2nc(N)nc(N)c2n1)c1ccc(C(=O)NC(CO)CCCO)cc1 (centres undefined)	> 100 µM (inactive)	> 100 µM (inactive)	> 100 µM (inactive)	> 100 µM (inactive)	> 100 µM (inactive)	> 100 µM (inactive)	> 100 µM (inactive)	> 100 µM (inactive)	> 100 µM (inactive)	> 100 µM (inactive)	> 100 µM (inactive)	> 100 µM (inactive)	> 100 µM (inactive)	> 100 µM (inactive)	–	> 100 µM	> 100 µM (inactive)	> 100 µM (inactive)	> 100 µM (inactive)
O=c1oc2ccc([N+](=O)[O-])cc2cc1Br	> 100 µM (inactive)	21.7 µM (inactive)	–	> 100 µM (inactive)	> 100 µM (inactive)	> 100 µM (inactive)	> 100 µM (inactive)	> 100 µM (inactive)	> 100 µM (inactive)	57.5 µM (inactive)	> 100 µM (inactive)	> 100 µM (inactive)	47.3 µM (inactive)	> 100 µM (inactive)	> 100 µM (inactive)	–	> 100 µM (inactive)	> 100 µM (inactive)	> 100 µM (inactive)
CCOC(=O)C1CCCCc2sc(N)c(C#N)c21 (centres undefined)	–	> 100 µM (inactive)	> 100 µM (inactive)	> 100 µM (inactive)	> 100 µM (inactive)	> 100 µM (inactive)	> 100 µM (inactive)	> 100 µM (inactive)	> 100 µM (inactive)	–	> 100 µM (inactive)	> 100 µM (inactive)	> 100 µM (inactive)	–	> 100 µM (inactive)	> 100 µM	> 100 µM (inactive)	> 100 µM (inactive)	–
OCC1OC(n2cnc3c(/C=C(/O)c4ccccc4)ncnc32)C(O)C1O (centres undefined)	2.77 µM (inactive)	4.12 µM (inactive)	0.7 µM (active)	4.89 µM (inactive)	10.9 µM (inactive)	3.19 µM (inactive)	2.94 µM (inactive)	2.16 µM (inactive)	2.17 µM (inactive)	0.61 µM (active)	0.92 µM (active)	3.1 µM (inactive)	1.35 µM (inactive)	3.11 µM (inactive)	–	1.05 µM	5.65 µM (inactive)	5.38 µM (inactive)	4.93 µM (inactive)
CCOC(=O)/C=C1\Nc2ccccc2C12CCc1c([nH]c3ccccc13)C2C(=O)OCC (centres undefined)	44.2 µM (inactive)	> 100 µM (inactive)	–	7.85 µM (inactive)	> 100 µM (inactive)	44.3 µM (inactive)	57.8 µM (inactive)	30.1 µM (inactive)	88.7 µM (inactive)	29 µM (inactive)	21.3 µM (inactive)	9.08 µM (inactive)	25.8 µM (inactive)	11.7 µM (inactive)	59.3 µM (inactive)	46.5 µM	21.8 µM (inactive)	–	71.8 µM (inactive)
Cc1c(C)c(S(=O)(=O)N(CCCCCON)OCCCN)c(C)c2c1OC(C)(C)CC2	14.5 µM (inactive)	12.3 µM (inactive)	14.3 µM (inactive)	14.3 µM (inactive)	12.8 µM (inactive)	15.4 µM (inactive)	16.7 µM (inactive)	14.6 µM (inactive)	11 µM (inactive)	–	16.6 µM (inactive)	9.89 µM (inactive)	2.71 µM (inactive)	6.41 µM (inactive)	–	15.2 µM	15.9 µM (inactive)	17.9 µM (inactive)	15.2 µM (inactive)
CN(C(=O)[C@H](NC(=O)OCc1ccccc1)c1ccccc1)C1CCCCC1N1CCCC1 (some centres undefined)	> 100 µM (inactive)	87.3 µM (inactive)	97.3 µM (inactive)	> 100 µM (inactive)	> 100 µM (inactive)	> 100 µM (inactive)	95.1 µM (inactive)	89.9 µM (inactive)	> 100 µM (inactive)	38.8 µM (inactive)	48.5 µM (inactive)	38.1 µM (inactive)	20.7 µM (inactive)	> 100 µM (inactive)	–	> 100 µM	16 µM (inactive)	0.55 µM (active)	–
CCC(=O)NCC1CCCN2CCCCC12 (centres undefined)	–	> 100 µM (inactive)	> 100 µM (inactive)	> 100 µM (inactive)	> 100 µM (inactive)	> 100 µM (inactive)	> 100 µM (inactive)	> 100 µM (inactive)	> 100 µM (inactive)	> 100 µM (inactive)	> 100 µM (inactive)	> 100 µM (inactive)	–	> 100 µM (inactive)	> 100 µM (inactive)	> 100 µM	> 100 µM (inactive)	> 100 µM (inactive)	> 100 µM (inactive)
O=C(O)C1C2CC3C(OC(=O)C31)C2Br (centres undefined)	> 100 µM (inactive)	> 100 µM (inactive)	> 100 µM (inactive)	> 100 µM (inactive)	> 100 µM (inactive)	> 100 µM (inactive)	> 100 µM (inactive)	> 100 µM (inactive)	> 100 µM (inactive)	> 100 µM (inactive)	> 100 µM (inactive)	> 100 µM (inactive)	0.432 µM (active)	> 100 µM (inactive)	–	> 100 µM	> 100 µM (inactive)	> 100 µM (inactive)	> 100 µM (inactive)
CC(=O)O[C@H]1CC[C@@]2(C)C(=CC[C@@H]3[C@@H]2CC[C@]2(C)c4nc(Cl)ccc4C[C@@H]32)C1	27.9 µM (inactive)	33.3 µM (inactive)	33.9 µM (inactive)	29.3 µM (inactive)	97.1 µM (inactive)	41.7 µM (inactive)	32 µM (inactive)	87.3 µM (inactive)	37.2 µM (inactive)	20.6 µM (inactive)	64.6 µM (inactive)	36.8 µM (inactive)	37 µM (inactive)	66.4 µM (inactive)	45 µM (inactive)	40 µM	30.8 µM (inactive)	> 100 µM (inactive)	–
COc1cc(C(c2ccc3c(c2)OCO3)C2SCCCS2)cc(OC)c1OC (centres undefined)	3.14 µM (inactive)	1.35 µM (inactive)	2.21 µM (inactive)	0.372 µM (active)	3.01 µM (inactive)	2.51 µM (inactive)	2.74 µM (inactive)	1.9 µM (inactive)	4.71 µM (inactive)	1.49 µM (inactive)	6.22 µM (inactive)	1.89 µM (inactive)	0.332 µM (active)	2.67 µM (inactive)	2.99 µM (inactive)	2.02 µM	3.34 µM (inactive)	2.7 µM (inactive)	–
NNC1=N/C(=C\c2ccco2)C(=O)N1	> 100 µM (inactive)	–	> 100 µM (inactive)	> 100 µM (inactive)	91.8 µM (inactive)	> 100 µM (inactive)	> 100 µM (inactive)	> 100 µM (inactive)	> 100 µM (inactive)	> 10 µM (inactive)	59.4 µM (inactive)	> 100 µM (inactive)	> 100 µM (inactive)	> 100 µM (inactive)	44.3 µM (inactive)	58.3 µM	> 100 µM (inactive)	> 100 µM (inactive)	> 100 µM (inactive)
C=CCOCn1cnc2c(=O)[nH]c(N)nc21	–	–	> 100 µM (inactive)	> 100 µM (inactive)	> 100 µM (inactive)	> 100 µM (inactive)	> 100 µM (inactive)	> 100 µM (inactive)	> 100 µM (inactive)	> 100 µM (inactive)	> 100 µM (inactive)	–	> 100 µM (inactive)	> 100 µM (inactive)	> 100 µM (inactive)	> 100 µM	> 100 µM (inactive)	> 100 µM (inactive)	> 100 µM (inactive)
